Measurements published in patent US4255585A, “Benzoheterocyclic derivatives of phenoxyacetic acid” (Centre European de Recherches Pharmacologique, priority 1975, dated 1981).
Read-outs that look alike come from different tables or passages of the source.

Columns and labels:
[1] = Diuretic activity (diuresis, Na+, K+, uric acid excretion); assay type: in vivo, Male Swiss C.D. mice; settings: mice; for Uricosuria (coefficient): uric acid by Caraway's method; for Diuresis (coefficient) / K+ (coefficient) / Na+ (coefficient) / Na+/K+: urine sampled 2 and 4 hours
Experimental: The three compounds were administered to Male Swiss C.D. mice of average weight 22 g. The animals were deprived of food and drink for 2 hours prior to treatment.
The animals were grouped two by two in cages where their metabolism is to be monitored. Sampling of the urine 2 and 4 hours after treatment. The experiments were made per lot of six pairs. The products were administered at constant volume.
The following determinations were made:
Na^+ and K^+ ions expressed in milliequivalents (Millival or M. Eq.) excreted in 2 or 4 hours (Eppendorf Flame Photometer);
uric acid excreted expressed in mg/2 or 4 hours determined by Caraway's method (Amer. J. Clin. Pathol. 1955. 25 840).
They are considered in the form of the coefficient: [formula]

in vivo = settings: for LD50 at 48 h: mouse, in vivo, po, read-out: LD 50 per os
Experimental: The three compounds were administered in the usual way to lots of 10 male mice (Swiss C.D.) of average weight 20 g. Mortality was assessed after 48 hours for toxicity per os.

[2] = male Swiss C.D. mice, per os, mortality after 48 hours

| SMILES | Uricosuria (coefficient) ([1]; 20 mg/kg P.O.) | Diuresis (coefficient) ([1]; 20 mg/kg P.O.) | K+ (coefficient) ([1]; 20 mg/kg P.O.) | Na+ (coefficient) ([1]; 20 mg/kg P.O.) | Na+/K+ ([1]; 20 mg/kg P.O.) | LD50 at 48 h (in vivo; [2]) [mg/kg] | Uricosuria (coefficient) ([1]; 100 mg/kg P.O.) | Diuresis (coefficient) ([1]; 100 mg/kg P.O.) | K+ (coefficient) ([1]; 100 mg/kg P.O.) | Na+ (coefficient) ([1]; 100 mg/kg P.O.) | Na+/K+ ([1]; 100 mg/kg P.O.) | LD50 at 48 h (in vivo) [mg/kg] | MLD per os (in vivo; [2]) [mg/kg] |
| --- | --- | --- | --- | --- | --- | --- | --- | --- | --- | --- | --- | --- | --- |
| C=C(CC)C(=O)c1ccc(OCC(=O)O)c(Cl)c1Cl [ethacrynic acid, reference compound] | 1.27 | 2.4 | 1.48 | 2.76 | 1.87 | 600 |  |  |  |  |  |  |  |
| NS(=O)(=O)c1cc(C(=O)O)c(NCc2ccco2)cc1Cl [furosemide, reference compound] | 1.34 | 3.0 | 1.51 | 4.28 | 2.83 |  |  |  |  |  |  |  |  |
| O=C(O)COc1ccc(C(=O)c2sc3ccccc3c2Cl)c(Cl)c1Cl [Example 3, 4-[2-(3-chloro)-benzothienyl-keto]-2,3-dichloro-phenoxy acetic acid] |  |  |  |  |  |  | 1.26 | 1.3 | 1.17 | 1.29 | 1.10 | > 1000 |  |
| CCc1oc2ccccc2c1C(=O)c1cc(I)c(O)c(I)c1 [benziodarone, reference compound] | 1.44 |  |  |  |  |  |  |  |  |  |  |  |  |
| O=C(O)COc1ccc(C(=O)c2cc3ccccc3s2)c(Cl)c1Cl [Example 2, 4-(2-benzothienyl-keto)-2,3-dichloro-phenoxyacetic acid] |  |  |  |  |  |  | 1.05 | 1.2 | 0.91 | 1.18 | 1.29 |  | > 1000 |
| O=C(O)COc1ccc(C(=O)c2cc3ccccc3o2)c(Cl)c1Cl [Example 1, 4-(2-benzofuryl-keto)-2,3-dichloro-phenoxyacetic acid] |  |  |  |  |  | < 1000 | 1.56 | 1.3 | 1.74 | 1.52 | 0.87 |  |  |
